Measured values taken from PubChem BioAssay AID365 (MTDP, 2006).
Calls of active or inactive are those of the source. How the calls were made is not given here.

The molecules below were run against Ribonuclease HI (Escherichia coli (strain K12)) (UniProt P0A7Y4) (assay: E. coli RNase HI inhibitors, dose response, biochemical, FRET RNA/DNA duplex cleavage (AID 365)). Conditions: E. coli RNase H, FRET RNA/DNA cleavage fluorescence.
Chain of Ribonuclease HI (Escherichia coli (strain K12)) (P0A7Y4 whole entry, looked up): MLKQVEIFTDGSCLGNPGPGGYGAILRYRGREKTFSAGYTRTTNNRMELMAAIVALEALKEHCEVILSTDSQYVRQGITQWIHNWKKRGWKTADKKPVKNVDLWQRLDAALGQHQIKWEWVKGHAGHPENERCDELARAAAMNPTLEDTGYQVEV
With Cc1sc(NC(=O)C2CCCO2)c(C(N)=O)c1C (stereo not drawn) the IC50 was > 100 µM (inactive).
For CCOc1ccc(C(=O)Nc2ccc3c(c2)C(=O)c2ccccc2C3=O)cc1, the IC50 was 4 µM.
In the case of O=C(O)C1Nc2c(Cl)cc(Cl)cc2C2C=CCC12 (stereo not drawn), the IC50 is reported as “inactive”.
CN(C)CN1CSC(=S)N(CN(C)C)C1 was tested, and the IC50 was “inactive”.
COc1ccc(-c2c(C#N)c(N)nc(SCC(=O)c3ccc(O)c(O)c3)c2C#N)cc1 was tested, and the IC50 was 0.6 µM.
In the case of COc1c(OC)c(O)c2c(=O)cc(-c3ccc(O)c(O)c3)oc2c1OC, the IC50 is reported as “inactive”.
In the case of Cc1ccc(C(=O)Nc2sc(C)c(C)c2C(N)=O)cc1, the IC50 is reported as 2.2 µM.
O=C(NC(=S)Nc1cc(-c2nc3ccccc3s2)ccc1Cl)c1ccc(F)cc1 gave an IC50 of 6 µM.
With Cc1c(O)c(Br)c(C)c(O)c1Br (tested in a mixture with another compound) the IC50 was > 100 µM (inactive).
For COc1cccc2cc(C(N)=O)c(=O)oc12, the IC50 was > 100 µM (inactive).
Cc1sc(NC(=O)c2ccc3c(c2)OCO3)c(C(N)=O)c1C showed an IC50 of 4 µM.
Cc1ccc(C)n1-c1ccc(Br)cc1C(=O)O was tested, and the IC50 was “inactive”.
Molecule O=S(=O)(O)c1cc(N=[N+]([O-])c2cc(S(=O)(=O)O)c3ccccc3c2)cc2ccccc12 has an IC50 of 0.7 µM.
In the case of CCN1C(=O)/C(=C/c2ccoc2)C(=O)NC1=S, the IC50 is reported as “inactive”.
In the case of C[C@]12Cc3cnc(-c4ccccc4)nc3C[C@@H]1CC[C@@H]1[C@@H]2CC[C@@]2(C)[C@H]1CC[C@]2(C)O, the IC50 is reported as “inactive”.
For Cc1ccc(S(=O)(=O)/N=C2\C=C(Sc3ncn[nH]3)C(=O)c3ccccc32)cc1, the IC50 was “inactive”.
For CCOc1ccc(NC(=O)c2c(NC(=O)c3ccco3)sc3c2CCCCC3)cc1, the IC50 was “inactive”.
Work on C[C@@H]1Oc2c3c(c4c(-c5ccccc5)cc(=O)oc4c2C(=O)[C@H]1C)OC(C)(C)C=C3 yielded an IC50 of 4.2 µM.
In the case of CN(C)CS/C(N)=N/C(O)C(Cl)(Cl)Cl (stereo not drawn), the IC50 is reported as “inactive”.
With CC(=O)C1=C(O)[C@@]2(O)C(=O)c3c(c(C)c4ccc(C)c(O)c4c3O)C[C@H]2[C@@H](N)C1=O the IC50 was 9 µM.
COc1ccc(NC(=O)c2c(N)sc(-c3ccccc3)c2C)cc1 was tested, and the IC50 was 2 µM.
With COc1ccc(N2C(=O)/C(=C/c3ccc(I)o3)C(=O)NC2=S)cc1 the IC50 was 3 µM.
O=C1NC(=S)N(c2cccc(Cl)c2)C(=O)/C1=C\C=C\c1ccco1 was tested, and the IC50 was “inactive”.
O=C1/C(=C/c2ccc(O)c(O)c2)SC(=S)N1C1CCCCC1 showed an IC50 of 3 µM.
For Cc1nn(CC(=O)Nc2sc(C)c(C)c2C(N)=O)c(C)c1[N+](=O)[O-], the IC50 was 8.2 µM.
With Cc1c(Cl)ccc2c1NC(C(=O)O)C1CC=CC21 (stereo not drawn) the IC50 was 6.8 µM.
In the case of Cc1ccc(C=C2C(=O)NC(=S)N(c3ccccc3Cl)C2=O)o1, the IC50 is reported as “inactive”.
With CC1Oc2cc3c(-c4c(O)cc(O)c5c(O)c6c(cc45)OC(C)C(C)C6=O)c(O)cc(O)c3c(O)c2C(=O)C1C (stereo not drawn) the IC50 was “inactive”.
Work on O=C1CC(=O)c2ccc3c4c(ccc1c24)C(=O)CC3=O yielded an IC50 of 5.2 µM.
With CC(=O)/C=C/C=C/c1ccc2c(c1)OC(CO)C(c1ccc(O)c(O)c1)O2 (stereo not drawn) the IC50 was “inactive”.
With Cc1ccc(C)n1-c1ccc(O)c(C(=O)O)c1 the IC50 was > 100 µM (inactive).
Work on O=C1C=CC(=O)c2c(O)cccc21 yielded an IC50 of 4.9 µM.
For O=c1[nH]c2[nH]c(=S)[nH]c(=S)c2[nH]1, the IC50 was > 100 µM (inactive).
Work on Cc1cc(-c2ccc(C=C3C(=O)NC(=S)NC3=O)o2)c([N+](=O)[O-])cc1C yielded an IC50 of 8.8 µM.
CC1C2C=CC1C(c1c3ccc(=O)c(O)c-3oc3c(O)c(O)ccc13)C2C(=O)O (stereo not drawn) was tested, and the IC50 was 1.3 µM.
Work on O=C1c2cc([N+](=O)[O-])ccc2-c2ccc3c4ccc5c6c(ccc(c7ccc1c2c73)c64)C(=O)c1cc([N+](=O)[O-])ccc1-5 yielded an IC50 of 1.8 µM.
Molecule Cc1ccc(-c2cc(C(=O)Nc3sc(C(=O)OC(C)C)c(C)c3C(N)=O)c3ccccc3n2)s1 has an IC50 of 1.8 µM.
For CC(C)=CCC/C(C)=C/Cc1cc(/C=C/c2cc(O)c(C/C=C(\C)CCC=C(C)C)c(O)c2)cc(O)c1O, the IC50 was 1.7 µM.
For Cc1ccc(S(=O)(=O)/N=C2\C=CC(=O)C=C2Cl)cc1, the IC50 was “inactive”.
Work on CCCc1cc(=O)oc2c3c(c4c(c12)OC(C)(C)C=C4)O[C@@H](C)[C@H](C)[C@@H]3F yielded an IC50 of 7 µM.
For CC1=C(CCC(=O)O)c2cc3nc(cc4[nH]c(cc5[nH]c(cc1n2)c(C)c5C(C)O)c(C)c4C(C)O)C(C)=C3CCC(=O)O (stereo not drawn), the IC50 was > 100 µM (inactive).
For COc1ccc(C(=O)NC(=S)Nc2ccc3nn(-c4ccc(C)c(Cl)c4)nc3c2)cc1[N+](=O)[O-], the IC50 was “inactive”.
Work on O=C(O)CCc1c2ccc(=O)c(O)c-2oc2c(O)c(O)ccc12 yielded an IC50 of 1.5 µM.
For CC(C)c1cccc(O)c(=O)c1, the IC50 was > 100 µM (inactive).
For Cc1cc(O)c2c(c1O)C(=O)c1cccc(O)c1C2=O, the IC50 was > 100 µM (inactive).
For Cc1onc(-c2ccccc2)c1C(=O)Nc1sc(C)c(C)c1C(N)=O, the IC50 was “inactive”.
O=c1oc2ccccc2c(O)c1/C=C1\C=Nc2ccccc21 was tested, and the IC50 was “inactive”.
For COC(=O)c1cc2c3c(ccc2[nH]1)N(C(=O)c1cc2c4c(ccc2[nH]1)N(C(=O)c1cc2c5c(ccc2[nH]1)N(C(N)=O)CC5)CC4)CC3, the IC50 was “inactive”.
